The source made the active and inactive calls.
Assays:
Cytochrome P450 2D6 = Cytochrome P450 2D6 (Homo sapiens, UniProt P10635);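 note: CYP2D6 member of a cytochrome P450 panel assay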
Cytochrome P450 2C19 = Cytochrome P450 2C19 (Homo sapiens, UniProt P33261); assay: Cytochrome panel assay with activity outcomes. Panel member name: p450-cyp2c19 Compounds with AC50 equal or less than 10 uM are considered active; format: functional; settings: read-out: AC50
Cytochrome P450 2C9 = Cytochrome P450 2C9 (Homo sapiens, UniProt P11712)
Chain of Cytochrome P450 2C9 (P11712 whole entry): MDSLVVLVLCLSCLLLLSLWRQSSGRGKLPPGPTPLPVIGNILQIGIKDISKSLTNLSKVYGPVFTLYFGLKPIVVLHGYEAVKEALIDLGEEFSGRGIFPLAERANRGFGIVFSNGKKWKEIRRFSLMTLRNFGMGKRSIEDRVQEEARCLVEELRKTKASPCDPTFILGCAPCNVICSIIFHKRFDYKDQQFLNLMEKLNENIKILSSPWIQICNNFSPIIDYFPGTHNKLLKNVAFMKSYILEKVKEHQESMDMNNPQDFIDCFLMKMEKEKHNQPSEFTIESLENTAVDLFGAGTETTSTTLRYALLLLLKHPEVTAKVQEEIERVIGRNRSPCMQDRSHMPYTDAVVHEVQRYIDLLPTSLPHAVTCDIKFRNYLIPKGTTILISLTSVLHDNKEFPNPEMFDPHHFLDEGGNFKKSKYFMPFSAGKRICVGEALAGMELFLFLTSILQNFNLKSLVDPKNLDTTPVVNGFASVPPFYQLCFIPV

Protein RecA = biological target: T1, Protein RecA (Mycobacterium tuberculosis, UniProt P9WHJ3); assay: Fluorescence Cell-Free Homogeneous Dose Retest to Identify Inhibitors of RecA-Intein Splicing Activity. [Related pubchem assays (depositor defined):AID2097, AID2223, AID489010, AID492950]; format: functional
T1 sequence (P9WHJ3 whole entry): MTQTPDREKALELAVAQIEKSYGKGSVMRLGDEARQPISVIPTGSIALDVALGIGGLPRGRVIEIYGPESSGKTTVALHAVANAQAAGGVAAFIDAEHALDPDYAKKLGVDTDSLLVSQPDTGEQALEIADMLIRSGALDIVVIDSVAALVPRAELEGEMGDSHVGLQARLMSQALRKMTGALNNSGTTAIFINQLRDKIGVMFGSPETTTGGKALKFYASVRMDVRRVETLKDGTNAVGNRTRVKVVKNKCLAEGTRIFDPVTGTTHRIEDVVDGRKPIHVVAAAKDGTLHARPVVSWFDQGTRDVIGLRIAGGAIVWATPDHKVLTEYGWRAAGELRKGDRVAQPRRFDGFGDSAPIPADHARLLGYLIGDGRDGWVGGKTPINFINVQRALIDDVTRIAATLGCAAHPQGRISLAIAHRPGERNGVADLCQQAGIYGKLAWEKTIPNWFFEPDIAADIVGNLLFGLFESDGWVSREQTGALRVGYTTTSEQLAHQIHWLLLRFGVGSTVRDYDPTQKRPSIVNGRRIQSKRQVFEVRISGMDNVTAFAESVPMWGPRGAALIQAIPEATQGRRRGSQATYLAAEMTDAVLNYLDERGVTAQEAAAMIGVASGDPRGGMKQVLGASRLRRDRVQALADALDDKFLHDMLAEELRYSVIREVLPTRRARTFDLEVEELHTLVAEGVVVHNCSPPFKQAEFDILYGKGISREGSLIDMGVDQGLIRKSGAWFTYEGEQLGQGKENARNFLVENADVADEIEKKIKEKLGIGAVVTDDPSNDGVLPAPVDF

[1] = biological target: T2, Replicative DNA helicase DnaB (Mycobacterium tuberculosis, UniProt P9WMR3); assay: DnaB intein splicing inhibitors, dose response, biochemical, cell-free fluorescence (AID 449749); format: functional
T2 sequence (P9WMR3 whole entry): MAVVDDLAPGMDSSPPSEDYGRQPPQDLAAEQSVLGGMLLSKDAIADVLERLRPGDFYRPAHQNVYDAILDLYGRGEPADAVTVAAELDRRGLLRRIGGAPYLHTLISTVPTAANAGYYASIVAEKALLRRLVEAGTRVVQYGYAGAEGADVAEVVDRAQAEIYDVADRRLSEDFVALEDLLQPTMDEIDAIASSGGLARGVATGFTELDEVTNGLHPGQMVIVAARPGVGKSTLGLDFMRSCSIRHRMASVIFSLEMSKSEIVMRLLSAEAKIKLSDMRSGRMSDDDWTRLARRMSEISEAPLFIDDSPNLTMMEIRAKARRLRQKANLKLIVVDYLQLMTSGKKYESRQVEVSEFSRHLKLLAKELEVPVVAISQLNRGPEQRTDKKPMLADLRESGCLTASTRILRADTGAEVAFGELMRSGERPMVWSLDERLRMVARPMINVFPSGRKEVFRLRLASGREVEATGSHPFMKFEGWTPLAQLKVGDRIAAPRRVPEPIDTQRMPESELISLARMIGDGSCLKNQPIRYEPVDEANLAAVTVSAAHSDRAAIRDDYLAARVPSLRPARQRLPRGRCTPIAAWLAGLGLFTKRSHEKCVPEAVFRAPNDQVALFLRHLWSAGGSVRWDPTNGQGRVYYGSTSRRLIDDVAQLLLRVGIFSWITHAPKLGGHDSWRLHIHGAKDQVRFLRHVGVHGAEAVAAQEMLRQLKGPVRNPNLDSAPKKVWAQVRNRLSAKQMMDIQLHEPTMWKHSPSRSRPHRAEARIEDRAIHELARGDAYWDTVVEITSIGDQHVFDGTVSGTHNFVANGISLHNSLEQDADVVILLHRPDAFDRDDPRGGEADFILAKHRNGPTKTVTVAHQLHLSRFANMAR

[2] = biological target: T3, Heat shock factor protein 1 (Mus musculus, UniProt P38532); assay: enhancement of HSF1-driven luciferase signal – cell-based, NIH3T3, luminescence, dose retest, confirmation (AID 435004); format: functional;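 note: stress induced by proteasome inhibitor MG132 added 30 min after compound; luciferase reporter driven by HSF1 response element in NIH3T3 cells; actives raise luminescence as potentiators of the MG132 stress response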
T3 sequence (P38532 whole entry): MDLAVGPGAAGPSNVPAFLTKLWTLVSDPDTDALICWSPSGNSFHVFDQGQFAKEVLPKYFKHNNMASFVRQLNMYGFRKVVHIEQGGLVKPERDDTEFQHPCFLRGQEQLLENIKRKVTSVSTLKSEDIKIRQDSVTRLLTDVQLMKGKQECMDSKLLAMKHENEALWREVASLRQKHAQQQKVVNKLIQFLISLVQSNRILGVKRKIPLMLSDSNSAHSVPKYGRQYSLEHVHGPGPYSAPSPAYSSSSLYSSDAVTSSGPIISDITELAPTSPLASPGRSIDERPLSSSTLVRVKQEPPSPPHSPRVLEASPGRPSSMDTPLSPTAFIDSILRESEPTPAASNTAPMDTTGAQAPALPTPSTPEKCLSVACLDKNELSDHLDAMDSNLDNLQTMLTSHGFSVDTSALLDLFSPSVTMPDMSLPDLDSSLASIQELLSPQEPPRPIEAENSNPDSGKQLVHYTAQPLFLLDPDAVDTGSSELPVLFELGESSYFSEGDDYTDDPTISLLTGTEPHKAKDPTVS

[3] = biological target: Luciferin 4-monooxygenase (Photinus pyralis, UniProt P08659); assay: inhibition of purified Photinus pyralis luciferase – biochemical, luminescence, dose response (AID 1891)
Chain of Luciferin 4-monooxygenase (P08659 whole entry): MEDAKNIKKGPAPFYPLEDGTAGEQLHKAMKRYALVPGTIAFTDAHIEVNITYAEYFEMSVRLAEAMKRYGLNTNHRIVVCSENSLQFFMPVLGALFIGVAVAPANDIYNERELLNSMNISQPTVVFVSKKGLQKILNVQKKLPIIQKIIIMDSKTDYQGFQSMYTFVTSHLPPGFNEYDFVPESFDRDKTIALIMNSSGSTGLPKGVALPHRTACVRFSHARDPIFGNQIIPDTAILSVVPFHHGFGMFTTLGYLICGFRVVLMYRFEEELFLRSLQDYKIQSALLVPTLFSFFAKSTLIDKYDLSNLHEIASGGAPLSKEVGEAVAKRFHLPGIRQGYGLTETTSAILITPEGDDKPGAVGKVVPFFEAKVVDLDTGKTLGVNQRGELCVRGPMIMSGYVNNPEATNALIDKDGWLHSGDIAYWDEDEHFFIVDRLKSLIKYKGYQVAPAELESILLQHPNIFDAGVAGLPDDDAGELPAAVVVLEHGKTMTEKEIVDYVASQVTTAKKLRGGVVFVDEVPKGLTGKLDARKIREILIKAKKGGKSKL

[4] = Luminescence Cell-Based Dose Confirmation HTS to Identify Inhibitors of Platelet Dense Granule Release. [Related pubchem assays: 1663 (Primary HTS), 1678 (Summary of Project)]; format: functional
Cytochrome P450 3A4 = Cytochrome P450 3A4 (Homo sapiens, UniProt P08684);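 note: CYP3A4 tested as one member of a cytochrome P450 panel screen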
Chain of Cytochrome P450 3A4 (P08684 whole entry): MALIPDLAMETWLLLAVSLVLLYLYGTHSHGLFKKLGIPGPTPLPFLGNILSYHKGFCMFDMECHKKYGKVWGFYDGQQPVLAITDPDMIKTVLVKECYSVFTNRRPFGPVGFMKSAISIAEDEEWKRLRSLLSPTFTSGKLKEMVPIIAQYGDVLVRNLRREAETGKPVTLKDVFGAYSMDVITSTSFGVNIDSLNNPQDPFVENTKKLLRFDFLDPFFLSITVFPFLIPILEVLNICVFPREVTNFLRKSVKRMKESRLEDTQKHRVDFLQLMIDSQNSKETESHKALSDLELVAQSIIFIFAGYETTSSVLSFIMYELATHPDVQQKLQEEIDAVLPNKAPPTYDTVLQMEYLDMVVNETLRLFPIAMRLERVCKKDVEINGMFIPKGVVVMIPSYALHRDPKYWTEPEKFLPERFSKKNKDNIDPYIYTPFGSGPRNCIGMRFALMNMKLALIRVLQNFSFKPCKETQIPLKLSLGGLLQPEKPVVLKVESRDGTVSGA

[5] = biological target: T4, Ubiquitin-conjugating enzyme E2 N (Homo sapiens, UniProt P61088); format: functional;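 note: Dose-response confirmation in a TR-FRET assay detecting UBC13-driven polyubiquitin chain formation, inhibition measured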
T4 sequence (P61088 whole entry): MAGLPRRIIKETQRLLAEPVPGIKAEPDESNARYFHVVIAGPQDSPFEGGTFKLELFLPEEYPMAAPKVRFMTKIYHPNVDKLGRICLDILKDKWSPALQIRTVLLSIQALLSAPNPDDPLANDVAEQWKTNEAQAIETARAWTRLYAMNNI

cells = format: functional

Chain of Cytochrome P450 2D6 (P10635 whole entry): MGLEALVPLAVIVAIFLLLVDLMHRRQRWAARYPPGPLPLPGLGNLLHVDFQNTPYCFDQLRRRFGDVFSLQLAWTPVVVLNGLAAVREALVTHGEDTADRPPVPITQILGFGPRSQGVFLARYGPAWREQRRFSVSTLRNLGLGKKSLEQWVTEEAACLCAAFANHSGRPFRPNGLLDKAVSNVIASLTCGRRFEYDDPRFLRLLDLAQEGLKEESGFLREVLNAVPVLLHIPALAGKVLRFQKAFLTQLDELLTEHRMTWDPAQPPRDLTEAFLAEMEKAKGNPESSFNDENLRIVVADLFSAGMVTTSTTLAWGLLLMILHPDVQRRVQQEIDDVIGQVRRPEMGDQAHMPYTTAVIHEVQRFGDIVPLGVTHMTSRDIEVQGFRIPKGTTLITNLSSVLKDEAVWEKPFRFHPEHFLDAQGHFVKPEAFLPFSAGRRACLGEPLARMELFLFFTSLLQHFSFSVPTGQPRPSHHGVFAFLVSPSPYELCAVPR
Chain of Cytochrome P450 2C19 (P33261 whole entry): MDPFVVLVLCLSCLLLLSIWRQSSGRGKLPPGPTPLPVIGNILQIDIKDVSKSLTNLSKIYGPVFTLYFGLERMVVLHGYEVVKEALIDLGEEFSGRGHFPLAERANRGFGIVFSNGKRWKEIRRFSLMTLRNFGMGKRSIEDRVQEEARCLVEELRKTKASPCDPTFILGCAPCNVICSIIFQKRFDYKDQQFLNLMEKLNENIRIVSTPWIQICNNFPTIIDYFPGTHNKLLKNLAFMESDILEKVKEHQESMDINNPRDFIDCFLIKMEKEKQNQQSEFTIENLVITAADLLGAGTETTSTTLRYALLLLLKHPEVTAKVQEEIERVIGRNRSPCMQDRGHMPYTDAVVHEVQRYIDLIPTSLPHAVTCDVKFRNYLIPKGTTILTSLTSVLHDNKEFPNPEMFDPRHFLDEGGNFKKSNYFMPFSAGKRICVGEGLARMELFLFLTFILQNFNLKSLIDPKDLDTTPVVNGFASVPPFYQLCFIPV

COc1ccc(Oc2ncc3nc(C)c(=O)n(-c4ccccc4)c3n2)cc1
AC50 (Cytochrome P450 2D6): 39.8 µM (inconclusive)
AC50 (Cytochrome P450 2C19): 39.8 µM (inconclusive)
AC50 (Cytochrome P450 2C9): 10 µM (inconclusive)

COC(=O)c1ccccc1NC(=S)NC(=O)c1ccc(C)cc1
EC50 (Protein RecA): 0.239 µM (active)
AC50 [1]: 0.452 µM (active)

Cc1cc(C)cc(NC(=O)CN2C(=O)NC(C)(c3ccccc3)C2=O)c1 (stereo not given)
EC50 [2]: > 260 µM (inactive)

COc1cccc(C2CC(C(F)(F)F)n3ncc(C(=O)O)c3N2)c1 (stereo not given)
EC50 [3]: > 112 µM (not active)
EC50 [4]: > 112 µM (not active)

CCOCCCN=C(S)Nc1ccc2nc(N3CCOCC3)cc(C)c2c1
EC50 [2]: > 260 µM (inactive)

COc1ccc(-c2cc(C(F)(F)F)nc(SCC(=O)N3CCOCC3)n2)cc1OC
EC50 [3]: > 112 µM (not active)
EC50 [4]: 15.8 µM (active)

COc1ccc(N2CCN(c3nc4c(c(=O)n(C)c(=O)n4C)n3Cc3ccccc3)CC2)cc1
EC50 [3]: 18 µM (active)
EC50 [4]: > 112 µM (not active)

Cc1ccnc(N2C(=O)C3C4CC(C(Br)C4Br)C3C2=O)c1 (stereo not given)
AC50 (Cytochrome P450 2C9): 17.8 µM (inconclusive)
AC50 (Cytochrome P450 3A4): 25.1 µM (inconclusive)

COc1cc(C#Cc2c(-c3cncn3C)n(C)c3ccc(Br)cc23)cc(OC)c1
IC50 [5]: > 20 µM (inactive)

C=CCn1c(S)nnc1C(C)NC(=O)c1ccccc1 (stereo not given)
AC50 (Cytochrome P450 2C9): 17.8 µM (inconclusive)

CN(Cc1cc(C(C)(C)C)cc(Br)c1O)Cc1cc(C(C)(C)C)cc(Br)c1O
AC50 (Cytochrome P450 2D6): 2.51 µM (inconclusive)
AC50 (Cytochrome P450 2C9): 3.98 µM (inconclusive)

CC(=O)NC(c1cc(Cl)c2ccccc2c1O)C(C)C (stereo not given)
IC50 [5]: > 20 µM (inactive)

CCCCOc1ccc(-c2nnn(C(C)C(=O)OCC)n2)cc1 (stereo not given)
IC50 (cells): 2.83 µM (active)

CCN1C(=O)c2cccc3c(S(=O)(=O)Nc4ncccc4C)ccc1c23
EC50 [2]: > 260 µM (inactive)

C#CCOCCOCCOCCNc1nc(N2CCN(C(=O)[C@H]([C@@H](C)CC)n3cc([C@@H](N)CC(C)C)nn3)CC2)nc(N2CCN(C(=O)[C@H](Cc3ccc(O)cc3)n3cc([C@@H](N)C(C)CC)nn3)CC2)n1 (stereo not given in full)
IC50 [5]: > 20 µM (inactive)

COc1cc(O)ccc1C=O
EC50 [3]: > 112 µM (not active)
EC50 [4]: > 112 µM (not active)

O=C(N/N=C/c1ccccn1)c1ccc(NC(=O)c2ccc(F)cc2)cc1
EC50 [3]: > 112 µM (not active)
EC50 [4]: > 112 µM (not active)

CCCc1cc(=O)oc2c(C)c(OCC(=O)Nc3ccc(CN4CCOCC4)cc3)ccc12
EC50 [3]: > 112 µM (not active)
EC50 [4]: > 112 µM (not active)

CC(=O)Nc1ccc(OCC(O)Cn2cnc3ccccc32)cc1 (stereo not given)
AC50 (Cytochrome P450 2D6): 0.00562 µM (inconclusive)
AC50 (Cytochrome P450 2C9): 0.0631 µM (inconclusive)

C[C@@H]1CC[C@H]2C(=O)O[C@H](CN=[N+]=[N-])CN2[C@@H]1c1ccc(Br)cc1
AC50 (Cytochrome P450 2D6): 7.94 µM (inconclusive)
AC50 (Cytochrome P450 2C9): 3.16 µM (inconclusive)

COc1ccccc1NC(=O)CSc1nc2c(sc3ccccc32)c(=O)n1CCN(C)C
EC50 (Protein RecA): 12.9 µM (active)
AC50 [1]: 58.7 µM (active)

C/C=C1\COC(C(=O)NCCN2CCCC2)(C(F)(F)F)C=C1C=C1CCCCC1 (stereo not given)
IC50 [5]: > 20 µM (inactive)

COC(=O)/C=C/CSC1=N/C(=C/c2ccc(-n3cncn3)cc2)C(=O)N1
AC50 (Cytochrome P450 2C9): 11.2 µM (inconclusive)

Cc1c(NC(=O)CSC(=S)N2CCCC2)c(=O)n(-c2ccccc2)n1C
EC50 [3]: > 112 µM (not active)
EC50 [4]: 25.5 µM (active)

O=C(OCc1ccc([N+](=O)[O-])cc1)c1ccc2ccccc2n1
IC50 (cells): 18 µM (active)

Cc1cccc(CC(C)NC(=O)c2oc3c(F)cccc3c2C)n1 (stereo not given)
EC50 [2]: > 260 µM (inactive)

Cc1ccc(S(=O)(=O)N2CCC(C(=O)NCc3cccnc3)CC2)cc1
AC50 (Cytochrome P450 2D6): 12.6 µM (inconclusive)
AC50 (Cytochrome P450 2C19): 17.8 µM (inconclusive)
AC50 (Cytochrome P450 2C9): 6.31 µM (inconclusive)

COc1ccc(NC(=O)C2CCCN(c3nn4c(=O)cc(C)nc4s3)C2)c(OC)c1 (stereo not given)
EC50 [3]: > 112 µM (not active)
EC50 [4]: > 112 µM (not active)

COc1ccc(CNC(=O)N[C@@H](CC(C)C)C(=O)O)cc1OC
EC50 [3]: > 112 µM (not active)
EC50 [4]: > 112 µM (not active)

Cc1cc(C(=O)N/N=C/c2ccc(OC(=O)c3ccccc3Br)cc2)[nH]n1
IC50 (cells): 41.6 µM (active)

CCN(CC)S(=O)(=O)c1ccc(N2CCN(S(=O)(=O)c3ccccc3C#N)CC2)nc1
EC50 (Protein RecA): > 380 µM (inactive)
AC50 [1]: > 380 µM (inactive)

COC(=O)C1=C(C)N(Cc2ccccc2)C(NCc2cc(OC)c(OC)c(OC)c2)=N[C@H]1CCc1ccccc1
IC50 [5]: > 20 µM (inactive)

Cn1c(SCc2cccc(C(F)(F)F)c2)nnc1-c1ccco1
EC50 [2]: > 260 µM (inactive)

O=C(CC1Oc2ccccc2NC1=O)NC1CCCC1 (stereo not given)
EC50 [3]: > 112 µM (not active)
EC50 [4]: > 112 µM (not active)

CCOC(=O)c1ccc(NC(=O)CCc2ccc(C)o2)cc1
EC50 [3]: > 112 µM (not active)
EC50 [4]: > 112 µM (not active)

CCCC[C@@H]1CN=C(N)N1CCc1cc(C(F)(F)F)cc(C(F)(F)F)c1
IC50 [5]: > 20 µM (inactive)

COc1[nH]nc(C(=O)Nc2cc(F)ccc2C)c1[N+](=O)[O-]
IC50 (cells): > 50 µM (active)

O=C(c1cccnc1S)N1CCN(S(=O)(=O)c2ccc(Br)cc2Cl)CC1
EC50 [2]: > 260 µM (inactive)

COc1cc(CNCC(O)c2ccccc2)ccc1OCc1ccc(Cl)nc1 (stereo not given)
EC50 [2]: > 260 µM (inactive)

COc1ccc(C/N=C(\C#N)C2=C(O)c3ccccc3C2=O)cc1
IC50 (cells): 45.7 µM (active)

CCOC(=O)c1c(NC(=O)COC(=O)c2ncc(Cl)c(Cl)c2Cl)sc(C(=O)N(C)C)c1C
EC50 (Protein RecA): 45.5 µM (active)
AC50 [1]: 14.1 µM (active)

CC1CCN(c2ccc(C=O)o2)CC1
EC50 [2]: > 260 µM (inactive)

Source: ChEMBL document CHEMBL1201862, “PubChem BioAssay data set” (2004)
